Results on 1 compound are retold here after patent US20140107107A1, “PHARMACEUTICAL FORMULATION CONTAINING THIENOTRIAZOLODIAZEPINE COMPOUNDS” (Oncoethix SA, priority 2012, published 2014).

As usually defined, the half-life is the time needed for the level to fall by half in the phase considered. Read a low half-life as fast loss. Broadly, the Cmax is the highest concentration seen after dosing. The term Tmax denotes the time from dosing to the highest level. What is called AUC is the area under the concentration-time curve, a measure of exposure. As a reminder, the MRT is a mean duration of stay, worked out from the concentration-time curve.

Data set [1] is described as follows: pharmacokinetics and oral bioavailability in dogs. Format: in vivo. To be noted: male, beagle, dog, plasma, 1 mg/kg IV. The procedure: Blood samples were collected from the jugular vein of each animal at 0 (pre-dose), 5, 15, and 30 minutes and 1, 2, 4, 8, 12, and 24 hours following intravenous administration and at 0 (pre-dose), 15 and 30 minutes and 1, 2, 4, 8, 12, and 24 hours following oral gavage administration. The amount of compound (1-1) present in each sample was detected using a qualified LC-MS/MS method with a lower limit of quantification of 0.5 ng/mL. The area under the plasma concentration-time curve (AUC) was determined by use of the linear trapezoidal rule up to the last measurable concentration without extrapolation of the terminal elimination phase to infinity. The elimination half-life (t1/2) was calculated by least-squares regression analysis of the terminal linear part of the log concentration-ime curve. The maximum plasma concentration (Cmax) and the time to Cmax (tmax) were derived directly from the plasma concentration data. The oral bioavailability (F) was calculated by dividing the dose normalized AUC after oral administration by the dose normalized AUC after intravenous administration and reported as percentages (%).

A short description of data set [2]: oral exposure in the rat (pharmacokinetics). Type of data set: in vivo, Hsd:Sprague Dawley rats. Conditions: 1 mg/kg intravenous. The procedure: The oral bioavailability of three formulations of solid dispersions of compound (1-1) was determined in rats. The three dispersions chosen were the 25% dispersion of compound (1-1) in PVP, the 25% dispersion of compound (1-1) in HPMCAS-MG, and the 50% dispersion of compound (1-1) in HPMCAS-MG. The animals used in the study were Specific Pathogen Free (SPF) Hsd:Sprague Dawley rats obtained from the Central Animal Laboratory at the University of Turku, Finland. The rats were originally purchased from Harlan, The Netherlands. The rats were female and were ten weeks of age, and 12 rats were used in the study. The animals were housed in polycarbonate Makrolon II cages (three animals per cage), the animal room temperature was 21+/−3° C., the animal room relative humidity was 55+/−15%, and the animal room lighting was artificial and was cycled for 12 hour light and dark periods (with the dark period between 18:00 and 06:00 hours). Aspen chips (Tapvei Oy, Estonia) were used for bedding, and bedding was changed at least once per week. Food and water was provided prior to dosing the animals but was removed during the first two hours after dosing.
The oral dosing solutions containing the 25% dispersion of compound (1-1) in PVP, the 25% dispersion of compound (1-1) in HPMCAS-MG, and the 50% dispersion of compound (1-1) in HPMCAS-MG were prepared by adding a pre-calculated amount of sterile water for injection to containers holding the dispersion using appropriate quantities to obtain a concentration of 0.75 mg/mL of compound (1-1). The oral dosing solutions were subjected to vortex mixing for 20 seconds prior to each dose. The dosing solution for intravenous administration contained 0.25 mg/mL of compound (1-1) and was prepared by dissolving 5 mg of compound (1-1) in a mixture containing 4 mL of polyethylene glycol with an average molecular weight of 400 Da (PEG400), 4 mL of ethanol (96% purity), and 12 mL of sterile water for injection. The dosing solution containing the 25% dispersion of compound (1-1) in PVP was used within 30 minutes after the addition of water. The dosing solutions containing the 25% dispersion of compound (1-1) in HPMCAS-MG and the 50% dispersion of compound (1-1) in HPMCAS-MG were used within 60 minutes of after the addition of water. A dosing volume of 4 mL/kg was used to give dose levels of compound (1-1) of 1 mg/kg for intravenous administration and 3 mg/kg for oral administration.
Blood samples of approximately 50 μL were collected into Eppendorf tubes containing 5 μL of ethylenediaminetetraacetic acid (EDTA) solution at time points of 0.25, 0.5, 1, 2, 4, 8, 12, and 24 hours after dosing, with each sample collected within a window of 5 minutes from the prescribed time point. From each sample, 20 μL of plasma was obtained and stored at dry ice temperatures for analysis. Analysis of each sample for the concentration of compound (1-1) was performed using a validated liquid chromatography tandem mass spectrometry (LC-MS/MS) method with a lower limit of quantitation of 0.5 ng/mL.
Pharmacokinetic parameters were calculated with the Phoenix WinNonlin software package (version 6.2.1, Pharsight Corp., CA, USA) with standard noncompartmental methods. The elimination phase half-life (t1/2) was calculated by least-squares regression analysis of the terminal linear part of the log concentration-time curve. The area under the plasma concentration-time curve (AUC) was determined by use of the linear trapezoidal rule up to the last measurable concentration and thereafter by extrapolation of the terminal elimination phase to infinity. The mean residence time (MRT), representing the average amount of time a compound remains in a compartment or system, was calculated by extrapolating the drug concentration profile to infinity. The maximum plasma concentration (Cmax) and the time to Cmax (tmax) were derived directly from the plasma concentration data. […]

Setting [3] is: female, Hsd:Sprague Dawley, plasma.

`Cc1sc2c(c1C)C(c1ccc(Cl)cc1)=N[C@@H](CC(=O)Nc1ccc(O)cc1)c1nnc(C)n1-2` [Compound (1-1), 2-[(6S)-4-(4-chlorophenyl)-2,3,9-trimethyl-6H-thienol[3,2f]-[1,2,4]triazolo[4,3-a][1,4]diazepin-6-yl]-N-(4-hydroxyphenyl)acetamide dihydrate] had a half-life in data set [1] of 1.5 h. For the same compound, in data set [1] (average of three dogs), the Cmax stood at 769 ng/mL and the Tmax came out at 4.98 min. The compound further gave an AUC in data set [1] (to last measurable concentration) of 889 ng·h/mL. Besides, the CI/F in data set [2] is 13.4 mL/min/kg. In data set [2] (setting [3]), the Cmax stood at 730 ng/mL, the MRT is 7.4 h, the time to peak (Tmax) came to 0.25 h and the half-life was 8.5 h. Also, the AUC in data set [2] (female, Hsd:Sprague Dawley, plasma, extrapolated to infinity) was 1240 ng·h/mL.
